Assay results reported in US9434994B2, “Methods for prediction of clinical outcome to epidermal growth factor receptor inhibitors by non-small cell lung cancer patients” (The Regents of the University of Colorado, a body corporate, priority 2004, dated 2016).
Read-outs that look alike come from different tables or passages of the source.

System: NSCLC patients
[1] = FISH −, IHC +, EGFR Mut +, n 12
[2] = FISH −, IHC +, EGFR Mut −, n 39
[3] = FISH −, IHC −, EGFR Mut −, n 37
[4] = FISH+ or EGFR + (EGFR mutation), 46 pts
[5] = FISH+/EGFR+ (EGFR mutation), 17 pts
[6] = FISH−/EGFR− (EGFR mutation), 80 pts
[7] = triple positive: EGFR FISH, EGFR IHC, P-AKT
[8] = triple positive: EGFR FISH, IHC, mutation (12 patients)

Text: In order to make a more substantial statistical analysis and power, the inventors have analyzed the combined data set, which includes altogether 204 patients with NSCLC.
The multivariable analysis is based on an initial univariable analysis including clinical- and biological markers by using backward stepwise regression methods. All univariately significant covariates were included in the stepwise selection.

## COc1cc2ncnc(Nc3ccc(F)c(Cl)c3)c2cc1OCCCN1CCOCC1 [gefitinib]
[1]
  DCR: 44%
  OR (response rate): 22%
  OS (median survival): 11 (3-11) months
  TTP: 4 (2-7) months
[2]
  1-yr surv: 49% (33-64)
  DCR: 41%
  OR (response rate): 3%
  OS (median survival): 11 (8-18) months
  TTP: 3 (2-5) months
FISH −, IHC +, P-AKT +, N 35
  1-yr surv: 43% (26-59)
  DCR: 47%
  OR (response rate): 13%
  OS (median survival): 11 (6-15) months
  TTP: 4 (2-6) months
FISH −, IHC +, P-AKT −, N 23
  1-yr surv: 47% (27-68)
  DCR: 50%
  OR (response rate): 6%
  OS (median survival): 9 (7-9) months
  TTP: 4 (2-7) months
FISH −, IHC −, EGFR Mut +, n 6
  1-yr surv: 0% (0-30)
  DCR: 0%
  OR (response rate): 0%
  OS (median survival): 3 (1-3) months
  TTP: 2 (1-2) months
[3]
  1-yr surv: 37% (21-52)
  DCR: 21%
  OR (response rate): 3%
  OS (median survival): 6 (4-12) months
  TTP: 2 (2-3) months
FISH −, IHC −, P-AKT +, N 32
  1-yr surv: 29% (13-44)
  DCR: 18%
  OR (response rate): 4%
  OS (median survival): 6 (4-10) months
  TTP: 2 (2-3) months
FISH −, IHC −, P-AKT −, N 17
  1-yr surv: 29% (8-51)
  DCR: 14%
  OR (response rate): 0%
  OS (median survival): 6 (4-12) months
  TTP: 2 (2-5) months
[4]
  1-yr (1-year survival): 45% (30-59)
  MS (mo) (median survival): 10 (5-14) mo
  RSP (response rate): 15%
  TTP (mo) (time to progression): 3 (2-5) mo
[5]
  1-yr (1-year survival): 67% (71-100)
  RSP (response rate): 69%
  TTP (mo) (time to progression): 16 (3-20) mo
[6]
  1-yr (1-year survival): 42% (31-53)
  DCR (disease control rate): 29%
  MS (mo) (median survival): 10 (6-13) mo
  RSP (response rate): 3%
  TTP (mo) (time to progression): 3 (2-3) mo
KRAS Mutation+
  1-yr OS: 49% (33%-66%)
  DC (disease control): 39%
  MS (95% CI): 11 (6-23)
  OR (overall response): 7%
  TTP, median (95% CI): 3 (2-4)
KRAS Mutation-
  1-yr OS: 50% (40%-60%)
  DC (disease control): 40%
  MS (95% CI): 12 (8-15)
  TTP, median (95% CI): 3 (2-4)
P-AKT+
  DC (disease control): 49%
  MS (95% CI): 13 (10-16)
  TTP, median (95% CI): 4 (3-5)
P-AKT+ or EGFR IHC+
  1-yr survival: 43% (32-54)
  DCR: 34%
  MS: 8 (6-14) mo
  RSP: 6%
  TTP: 3 (2-3) mo
P-AKT+/EGFR IHC+
  1-yr survival: 63% (51-74)
  MS: 16 (12-21) mo
  RSP: 30%
  TTP: 6 (4-10) mo
P-AKT-
  DC (disease control): 33%
  MS (95% CI): 8 (6-14)
  OR (overall response): 2%
  TTP, median (95% CI): 3 (2-5)
P-AKT-/EGFR IHC-
  DCR: 21%
  MS: 6 (5-9) mo
  TTP: 2 (2-4) mo
Both cohorts, total
  Disease Control Rate: 43%
  Median Survival: 11 (8-14)
  Median Time to Progression: 3 (3-4)
  One-YR Survival: 48% (41-55)
  Overall Response: 15%
Performance status 2
  HR, survival, multivariable: 3.64
[7]
  Disease Control Rate: 80%
  response rate: 43%
  time to progression: 12 months
Triple positive: EGFR FISH, EGFR IHC, P-AKT, not achieved yet
  Median Survival: exceeding 20 months
[8]
  1-year survival: 100%
  Disease Control Rate: 78%
  response rate: 78%
  time to progression: 20 months
Triple positive: EGFR FISH, IHC, mutation, not yet achieved
  Median Survival: exceeding 20 months
